# US20240376433A1, “STEM CELL INDUCTION INTO PRECHONDROCYTES AND DIFFERENTIATION INTO CHONDROCYTES BY CIPROFLOXACIN” (SMART CELL LAB CO., LTD., priority 2021, published 2024)
# Assays:
# stem cells [1] = test: Induction of differentiation of stem cells into chondrocytes (2D), Alcian blue staining; format: cell-based; details: 2D culture, induced to differentiate for 16 days
# Experimental: Stem cells (collected from tissue donated by a hospital for non-profit patient treatment) were cultured by attaching 80% or more of the stem cells to a Dulbecco's modified Eagle's medium (DMEM) or a-MEM containing 1 to 10% FBS. Thereafter, the cells were collected using Trypsin-EDTA, counted, seeded at 1×10^3 cells/well in a 96-well plate, and attached to the plate for 24 hours. […] Thereafter, the stem cells induced to differentiate for 16 days were washed with DPBS and fixed with 4% paraformaldehyde for 1 hour. The completely fixed cells were stained using an Alcian blue solution (Merck, B8438) for 1 hour to 1 day. Thereafter, the cells were washed once with 1 N HCl, and then further washed three times with sterile distilled water. Finally, the washed sample was observed under a microscope.
# stem cells [2] = test: Induction of differentiation of stem cells into chondrocytes (3D), Alcian blue staining; format: cell-based; details: 3D culture, 0.1 to 6 μM ciprofloxacin, 16 days
# Experimental: Stem cells (collected from tissue donated by a hospital for non-profit patient treatment) were cultured by attaching 80% or more of the stem cells to a Dulbecco's modified Eagle's medium (DMEM) or a-MEM containing 1 to 10% FBS. Thereafter, the cells were collected and counted using Trypsin-EDTA, and 5×10^5 cells were inoculated into a 15 ml conical tube. A medium containing 0.1 to 6 μM ciprofloxacin was centrifuged to settle the cells at 150 g using a centrifuge (Hanil Science Co., Ltd., Combi415). The cells were cultured in a 5% CO2 incubator at 37° C. while exchanging the medium every 2 to 3 days. The stem cells induced to differentiate for 16 days were washed with DPBS and fixed with 4% paraformaldehyde for 1 hour. The completely fixed cells were stained using an Alcian blue solution (Merck, B8438) for 1 hour to 24 hours. Thereafter, the cells were washed once with 1 N HCl, and then further washed three times with sterile distilled water. Finally, the washed sample was observed.
# stem cells [3] = details: stem cells cultured in medium with ciprofloxacin
# Experimental: Stem cells (collected from tissue donated by a hospital for non-profit patient treatment) were cultured by attaching 80% or more of the stem cells to a Dulbecco's modified Eagle's medium (DMEM) or a-MEM containing 1 to 10% FBS.
# Thereafter, the cells were collected using Trypsin-EDTA, counted, seeded at 1×10^3 cells/well in a 96-well plate, and attached to the plate for 24 hours. Thereafter, ciprofloxacin (Samsung Pharmaceutical, ciprofloxacin injection) was administered according to the concentration, and then cytotoxicity was confirmed for a specific time (up to 166 hours). Next, each well was treated with Cell Counting Kit-8 (hereinafter referred to as CCK, DOJINDO, Cat. No. CK04-13) at 10 μl/well, and then cultured at 37° C. in a 5% CO2 incubator for 1 hour.
# The absorbance was measured using an absorbance meter (Bio-Tek, Epoch2) and quantitatively calculated.
smiles,measurement,setting,value
O=C(O)c1cn(C2CC2)c2cc(N3CCNCC3)c(F)cc2c1=O [ciprofloxacin],"differentiation into chondrocytes, Alcian blue staining (2D)",stem cells [1],"Alcian blue staining, which appears depending on SOX9, was present throughout the chondrocytes"
same,"differentiation into chondrocytes, Alcian blue staining (3D)",stem cells [2],"Alcian blue staining, which appears depending on SOX9, was present throughout the chondrocytes"
same,cell viability compared to a control (CONT),stem cells [3],a significant difference in cell viability was not exhibited
